# Experimental data published in article PMC5522529, “Mechanisms of Paradoxical Activation of AMPK by the Kinase Inhibitors SU6656 and Sorafenib” (Cell Chemical Biology, 2017).
# How the values were obtained:
# AMPK = type: cell-based, mouse; conditions: SYF cells, 1 hr
# Procedure: We next tested the effect of SU6656 in SYF cells, which are mouse embryo fibroblasts (MEFs) with null alleles for Src, Yes, and Fyn, the three Src kinases expressed in MEFs ([Klinghoffer et al., 1999]).
# Top: AMPK activity (mean ± SEM, n = 4); bottom: western blots showing phosphorylation of Thr172 on AMPK, and of ERK1/2, in cells treated with DMSO (control), SU6656 (100 μM), or PP2 (100 nM) (n = 2). (B) As (A), but in SYF cells. (C) HeLa cells were transfected with DNAs encoding GFP alone, or GFP fused to WT, Y261F/Y365F (FF), or Y36F/Y261F/Y365F (FFF) mutants of LKB1; cells were treated with increasing concentrations of SU6656 for 1 hr and AMPK activity determined (mean ± SEM, n = 4). See also Figure S1. (D) HEK293 cells were transfected with DNAs encoding FLAG-tagged AMPK-α2 with or without a Y436F mutation. Cells were incubated with DMSO (control), 100 μM SU6656, 10 mM phenformin, or 10 μM A23187 for 1 hr; AMPK complexes were immunoprecipitated using anti-FLAG antibody and assayed. The top panels show kinase activities (mean ± SD, n = 3); the bottom panels show blots from the same experiment (n = 2). In all panels, asterisks indicate significant differences from DMSO controls; in (D), there were no significant differences between the WT and Y463F mutant. **p < 0.01, ****p < 0.0001. […]
# [1] = molecular target: T1, AMPK-γ1 R299G (RG) complexes (Homo sapiens, UniProt P54619, R299G); assay: Activation by LKB1 of FLAG-AMPK-γ1 R299G (RG) complexes precipitated from HeLa cells; type: biochemical; conditions: RG mutant γ1; AMP 200 μM or SU6656 3 μM, 10 min
# T1 construct: Plasmid encoding full-length human AMPK-γ1; expressed in transfected cells; host or cells: HeLa
# T1 sequence (P54619 whole entry R299G, one chain of several): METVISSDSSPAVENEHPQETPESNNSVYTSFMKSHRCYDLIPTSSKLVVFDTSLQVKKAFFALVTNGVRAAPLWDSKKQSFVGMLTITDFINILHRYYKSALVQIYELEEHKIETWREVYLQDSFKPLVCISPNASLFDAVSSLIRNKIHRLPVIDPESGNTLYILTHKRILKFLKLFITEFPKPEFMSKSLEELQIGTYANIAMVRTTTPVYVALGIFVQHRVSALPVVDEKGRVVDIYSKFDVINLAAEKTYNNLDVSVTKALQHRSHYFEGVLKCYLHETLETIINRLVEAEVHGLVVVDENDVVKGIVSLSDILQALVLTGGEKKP
# From the text: (§1) (B) Effect of ATP concentration on kinase activity of α2-KD in the presence of increasing concentrations of SU6656. Results (mean, n = 2) were fitted to the equation Y= (Vmax × X)/(Km × (1 + I/Ki) + X), where Y is the activity, X is the ATP concentration, I is the concentration of SU6656, and Ki is the inhibitory constant for SU6656. […] (D and E) Effect of increasing concentrations of SU6656 on activity (D) and Thr172 phosphorylation (E) induced by LKB1 with unphosphorylated α2-KD (WT/AT mutant). Results in (D) are mean ± SEM (n = 3); and were fitted to same equation as Figure 4C. […] See also Figure S3. (F) Effect of AMP (2 mM) and SU6656 on inactivation of AMPK by PP2Cα in the presence of 5 mM ATP. […] (G) Effects of AMP or SU6656 on activation (top) and Thr172 phosphorylation (bottom) by LKB1 of AMPK-γ1 complexes expressed in HeLa cells. FLAG-tagged AMPK-γ1, either wild-type (WT) or R299G mutant (RG), was expressed in HeLa cells and AMPK complexes precipitated using anti-FLAG antibody. The complexes (which have low basal phosphorylation due to lack of LKB1 in HeLa cells) were incubated with or without a limiting amount of LKB1, AMP (200 μM) or SU6656 (3 μM) for 10 min and AMPK activity determined. […]
# α2-KD A156T (AT) mutant = molecular target: T2, α2-KD A156T (AT) mutant (Homo sapiens, UniProt P54646, A156T); assay: Inhibition of phosphorylated α2 kinase domain, A156T (AT) mutant; type: biochemical
# T2 construct: amplifying residues 1-310 with 5' BamH1 and 3' Xho1 sites; made in house; host or cells: bacteria
# T2 sequence (P54646 1-310 A156T): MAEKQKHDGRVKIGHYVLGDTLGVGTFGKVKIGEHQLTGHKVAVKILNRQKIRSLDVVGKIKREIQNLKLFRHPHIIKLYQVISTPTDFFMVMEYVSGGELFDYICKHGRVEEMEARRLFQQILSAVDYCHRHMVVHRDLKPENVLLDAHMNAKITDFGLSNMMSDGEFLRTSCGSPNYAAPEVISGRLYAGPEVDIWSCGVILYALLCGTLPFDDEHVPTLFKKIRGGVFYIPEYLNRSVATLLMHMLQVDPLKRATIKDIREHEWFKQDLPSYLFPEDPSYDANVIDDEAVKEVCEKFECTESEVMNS
# purified rat liver AMPK = assay: Kinase assay of purified rat liver AMPK at 2 mM ATP; type: biochemical; conditions: ± 1 mM AMP
# α2β2γ1 complex = molecular target: T3, α2β2γ1 complex (Homo sapiens, UniProt P54619+P54646); assay: Inactivation of full-length α2β2γ1 complex by PP2Cα; type: biochemical; conditions: 5 mM ATP, AMP 2 mM, SU6656 up to 10 μM
# T3 construct: bacterially expressed α2-KD or a full-length α2β2γ1 complex, both of which had been phosphorylated using CaMKK2; made in house; host or cells: bacteria
# T3 sequence (P54646 whole entry): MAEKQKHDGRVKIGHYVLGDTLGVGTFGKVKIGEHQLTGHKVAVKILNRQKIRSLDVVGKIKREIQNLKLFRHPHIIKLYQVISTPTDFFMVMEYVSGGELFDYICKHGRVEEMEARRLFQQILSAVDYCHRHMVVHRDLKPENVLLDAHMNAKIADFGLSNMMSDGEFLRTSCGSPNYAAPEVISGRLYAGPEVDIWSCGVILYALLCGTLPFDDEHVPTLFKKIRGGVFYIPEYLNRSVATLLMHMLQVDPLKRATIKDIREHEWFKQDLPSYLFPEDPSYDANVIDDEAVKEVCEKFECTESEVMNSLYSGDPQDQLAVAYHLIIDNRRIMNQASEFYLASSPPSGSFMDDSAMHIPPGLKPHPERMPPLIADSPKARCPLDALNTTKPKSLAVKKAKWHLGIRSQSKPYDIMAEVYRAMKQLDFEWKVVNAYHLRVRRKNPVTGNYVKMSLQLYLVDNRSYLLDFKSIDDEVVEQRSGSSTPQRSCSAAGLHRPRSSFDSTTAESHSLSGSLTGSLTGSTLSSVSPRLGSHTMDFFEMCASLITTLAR
# T3 sequence (O43741 whole entry partner): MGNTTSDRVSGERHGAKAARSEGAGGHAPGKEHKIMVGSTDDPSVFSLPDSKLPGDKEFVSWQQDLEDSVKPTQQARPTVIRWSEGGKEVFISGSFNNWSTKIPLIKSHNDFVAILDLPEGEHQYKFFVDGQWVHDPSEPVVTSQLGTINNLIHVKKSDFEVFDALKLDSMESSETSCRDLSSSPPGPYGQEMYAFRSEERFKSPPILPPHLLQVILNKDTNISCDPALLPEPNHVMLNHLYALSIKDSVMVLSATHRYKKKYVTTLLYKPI
# T3 sequence (P54619 whole entry): as the sequence (P54619 whole entry R299G, one chain of several) above, with G299R counted along it
# Erk1/2 = Erk1/2 phosphorylation in SYF cells; type: cell-based, mouse; conditions: SU6656 100 μM, PP2 100 nM
# AMPK-γ1 complexes (WT) = molecular target: T4, AMPK-γ1 complexes (WT) (Homo sapiens, UniProt P54619); assay: Activation by LKB1 of FLAG-AMPK-γ1 (WT) complexes precipitated from HeLa cells; type: biochemical; conditions: AMP 200 μM or SU6656 3 μM, 10 min
# T4 construct: Plasmid encoding full-length human AMPK-γ1; expressed in transfected cells; host or cells: HeLa
# T4 sequence (P54619 whole entry, one chain of several): as the sequence (P54619 whole entry R299G, one chain of several) above, with G299R counted along it
# From the text: as §1
structure (smiles),measurement,setting,value
CN(C)S(=O)(=O)c1ccc2c(c1)/C(=C/c1cc3c([nH]1)CCCC3)C(=O)N2 [SU6656],AMPK activity / Thr172 phosphorylation,AMPK,still activated and increased Thr172 phosphorylation of AMPK
same,activation and Thr172 phosphorylation by LKB1,[1],preserved
same,IC50,"α2-KD A156T (AT) mutant; AT mutant α2-KD phosphorylated using CaMKK2, read-out: IC50 for inhibition of catalytic activity",1700 ± 300 nM
same,fold less potent inhibition with AT mutant than WT,α2-KD A156T (AT) mutant; AT versus WT α2-KD,~10 fold
same,concentrations inhibiting both basal and AMP-stimulated activity,purified rat liver AMPK,above 1 μM
same,protection against inactivation by PP2Cα,α2β2γ1 complex,did not protect against inactivation
same,Erk1/2 phosphorylation,Erk1/2,inhibited Erk1/2 phosphorylation
same,activation and Thr172 phosphorylation by LKB1,AMPK-γ1 complexes (WT),promoted activation and increased Thr172 phosphorylation
